Test in all cases: relative viability (nuclei count vs DMSO), 5 days (fraction); higher = more cells survive
Compound in test [1]: CCc1c2c(nc3ccc(OC(=O)N4CCC(N5CCCCC5)CC4)cc13)-c1cc3c(c(=O)n1C2)COC(=O)[C@]3(O)CC [Irinotecan] + N=C(N)NC(=N)NCCc1ccccc1 [Phenformin] (partner 250 µM)
The method, boiled down:
(§1)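 A single step with final 0.05% Triton X-100, 1% formaldehyde and 1 ug/ml Hoechst fixed the cells and stained nuclei 5 days after treatment. Lung cancer cell lines in 1536-well plates had been treated by pin tool the day after seeding with one drug alone or a fixed anchor-drug dose plus five library-drug doses (not always all listed) in √10 steps, and nuclei were counted on 4× images. Relative viability is the ratio of nuclei in treated wells to nuclei in vehicle wells, taken as the median of duplicate plates.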

Compound in test [2]: CC[C@@H](C)CNCC(=O)N1CCC2=C([C@@H]1COC3=CC=CC(=C3)C)C=CS2 [RU-SKI 43] + CS(=O)(=O)N1CCN(Cc2cc3nc(-c4cccc5[nH]ncc45)nc(N4CCOCC4)c3s2)CC1 [Pictilisib] (partner 1 µM)
The method, boiled down:
as §1

Compound in test [3]: Cn1cc(-c2cnc3ccc4ccc(CS(=O)(=O)NCc5ccccn5)cc4c(=O)c3c2)cn1 [MK-8033] + C[C@@H](Oc1cc(-c2cnn(C3CCNCC3)c2)cnc1N)c1c(Cl)ccc(F)c1Cl [Crizotinib] (partner 1 µM)
In short, it runs like this: as §1

Compound in test [4]: CCc1c2c(nc3ccc(OC(=O)N4CCC(N5CCCCC5)CC4)cc13)-c1cc3c(c(=O)n1C2)COC(=O)[C@]3(O)CC [Irinotecan] + O=C(c1cc(Cc2n[nH]c(=O)c3ccccc23)ccc1F)N1CCN(C(=O)C2CC2)CC1 [Olaparib] (partner 8 µM)
In short, it runs like this:
as §1

With LC-2-ad, the relative viability stood at 0.444 in test [1] (first compound 0.6325 µM); 0.529 in test [1] (first compound 2 µM); 0.324 in test [1] (first compound 6.325 µM); 0.197 in test [1] (first compound 20 µM); 0.404 in test [2] (first compound 0.1 µM); 0.601 in test [2] (first compound 0.3162 µM). Further, the relative viability in test [2] (first compound 1 µM) worked out at 0.562; in test [2] (first compound 3.162 µM), 0.438; in test [2] (first compound 10 µM) it was 0.358; in test [3] (first compound 0.02 µM), 0.423; in test [3] (first compound 0.06325 µM), 0.347; in test [3] (first compound 0.2 µM) it was 0.393. The relative viability in test [3] (first compound 0.6325 µM) worked out at 0.447; in test [3] (first compound 2 µM), 0.445; in test [4] (first compound 0.6325 µM), 0.389; in test [4] (first compound 2 µM), 0.337; in test [4] (first compound 6.325 µM) it was 0.282; in test [4] (first compound 20 µM) it was 0.24.
Consider LCLC-97TM1, for which the relative viability in test [1] (first compound 0.6325 µM) stood at 0.322; in test [1] (first compound 2 µM), 0.205; in test [1] (first compound 6.325 µM), 0.127; in test [1] (first compound 20 µM) it was 0.115; in test [2] (first compound 0.1 µM), 0.191; in test [2] (first compound 1 µM) it was 0.213. Moreover, the relative viability in test [2] (first compound 3.162 µM) is 0.162; in test [2] (first compound 10 µM), 0.188; in test [3] (first compound 0.02 µM), 0.393; in test [3] (first compound 0.06325 µM) it was 0.261; in test [3] (first compound 0.2 µM) it was 0.508; in test [3] (first compound 0.6325 µM), 0.383. Besides, the relative viability in test [3] (first compound 2 µM) came out at 0.379; in test [4] (first compound 0.6325 µM) it was 0.0852; in test [4] (first compound 2 µM), 0.144; in test [4] (first compound 6.325 µM) it was 0.0736; in test [4] (first compound 20 µM), 0.13.
Consider NCI-H522, for which the relative viability in test [1] (first compound 0.6325 µM) is 0.578; in test [1] (first compound 2 µM), 0.567; in test [1] (first compound 6.325 µM), 0.514; in test [1] (first compound 20 µM) it was 0.564; in test [4] (first compound 0.6325 µM) it was 0.493; in test [4] (first compound 2 µM) it was 0.532. Besides, the relative viability in test [4] (first compound 6.325 µM) was 0.453; in test [4] (first compound 20 µM), 0.525.
On to NCI-H1299, for which the relative viability in test [2] (first compound 0.1 µM) was found to be 0.823; in test [2] (first compound 0.3162 µM) it was 1.05; in test [2] (first compound 1 µM), 0.709; in test [2] (first compound 3.162 µM), 0.789; in test [2] (first compound 10 µM), 0.686; in test [3] (first compound 0.02 µM) it was 0.956. In addition, the relative viability was found to be 0.925 in test [3] (first compound 0.06325 µM); 0.92 in test [3] (first compound 0.2 µM); 0.946 in test [3] (first compound 0.6325 µM); 0.971 in test [3] (first compound 2 µM); 0.539 in test [4] (first compound 0.6325 µM); 0.478 in test [4] (first compound 2 µM). Besides, the relative viability was 0.337 in test [4] (first compound 6.325 µM) and 0.207 in test [4] (first compound 20 µM).
Take NCI-H1395: the relative viability in test [1] (first compound 0.6325 µM) worked out at 0.403; in test [1] (first compound 2 µM), 0.493; in test [1] (first compound 6.325 µM), 0.389; in test [1] (first compound 20 µM) it was 0.399; in test [2] (first compound 0.1 µM) it was 0.607; in test [2] (first compound 0.3162 µM), 0.574. The relative viability in test [2] (first compound 1 µM) amounted to 0.668; in test [2] (first compound 3.162 µM), 0.58; in test [2] (first compound 10 µM) it was 0.542; in test [4] (first compound 2 µM) it was 0.458; in test [4] (first compound 6.325 µM) it was 0.455; in test [4] (first compound 20 µM), 0.31.
For the cell line NCI-H1563, the relative viability was determined as 0.634 in test [1] (first compound 0.6325 µM); 0.691 in test [1] (first compound 2 µM); 0.608 in test [1] (first compound 6.325 µM); 0.38 in test [1] (first compound 20 µM); 0.682 in test [2] (first compound 0.1 µM); 0.653 in test [2] (first compound 0.3162 µM). Also, the relative viability in test [2] (first compound 1 µM) is 0.689; in test [2] (first compound 3.162 µM), 0.701; in test [2] (first compound 10 µM) it was 0.646; in test [3] (first compound 0.02 µM), 0.918; in test [3] (first compound 0.06325 µM) it was 0.813; in test [3] (first compound 0.2 µM) it was 0.773. Moreover, the relative viability in test [3] (first compound 0.6325 µM) came out at 0.93; in test [3] (first compound 2 µM), 0.812.
As to NCI-H1623, the relative viability stood at 0.548 in test [1] (first compound 0.6325 µM), 0.696 in test [1] (first compound 2 µM), 0.233 in test [1] (first compound 6.325 µM) and 0.219 in test [1] (first compound 20 µM).
Take NCI-H1648: the relative viability in test [4] (first compound 0.6325 µM) is 0.525; in test [4] (first compound 2 µM) it was 0.388; in test [4] (first compound 6.325 µM) it was 0.35; in test [4] (first compound 20 µM), 0.276.
On to NCI-H1703, for which the relative viability in test [2] (first compound 0.1 µM) came out at 0.253; in test [2] (first compound 0.3162 µM), 0.209; in test [2] (first compound 1 µM), 0.263; in test [2] (first compound 3.162 µM), 0.273; in test [2] (first compound 10 µM), 0.219; in test [3] (first compound 0.02 µM), 0.583. For the same cell line, the relative viability came out at 0.576 in test [3] (first compound 0.06325 µM); 0.549 in test [3] (first compound 0.2 µM); 0.601 in test [3] (first compound 0.6325 µM); 0.715 in test [3] (first compound 2 µM); 0.512 in test [4] (first compound 0.6325 µM); 0.375 in test [4] (first compound 2 µM). Also, the relative viability in test [4] (first compound 6.325 µM) was determined as 0.169; in test [4] (first compound 20 µM), 0.164.
For the cell line NCI-H1793, the relative viability was 0.347 in test [1] (first compound 2 µM); 0.263 in test [1] (first compound 6.325 µM); 0.185 in test [1] (first compound 20 µM); 0.396 in test [2] (first compound 0.1 µM); 0.411 in test [2] (first compound 0.3162 µM); 0.479 in test [2] (first compound 1 µM). Moreover, the relative viability in test [2] (first compound 3.162 µM) was 0.318; in test [2] (first compound 10 µM) it was 0.31; in test [4] (first compound 2 µM), 0.528; in test [4] (first compound 6.325 µM) it was 0.173; in test [4] (first compound 20 µM) it was 0.209.
In the case of NCI-H2342, the relative viability amounted to 0.614 in test [1] (first compound 0.6325 µM); 0.59 in test [1] (first compound 2 µM); 0.554 in test [1] (first compound 6.325 µM); 0.418 in test [1] (first compound 20 µM); 0.412 in test [4] (first compound 0.6325 µM); 0.386 in test [4] (first compound 2 µM). The relative viability in test [4] (first compound 6.325 µM) was determined as 0.352; in test [4] (first compound 20 µM), 0.384.
Turning to SW 900, the relative viability in test [1] (first compound 0.6325 µM) was determined as 0.425; in test [1] (first compound 2 µM) it was 0.664; in test [1] (first compound 6.325 µM), 0.447; in test [1] (first compound 20 µM), 0.37; in test [4] (first compound 2 µM) it was 0.474; in test [4] (first compound 6.325 µM), 0.334. For the same cell line, in test [4] (first compound 20 µM), the relative viability stood at 0.384.

Source of the values: the supplement of paper PMC10307832.
